Data: ChEMBL document CHEMBL3991601, “The target landscape of clinical kinase drugs” (Science, 2017)
Active and inactive are the calls of the source. For most assays here, no stated cut-off is given here; in the data, actives have a measured Kd and inactives only a lower limit.

Legend:
[1] = molecular target: T1, Activin receptor type-1B (Homo sapiens, UniProt P36896)
T1 sequence (P36896 whole entry): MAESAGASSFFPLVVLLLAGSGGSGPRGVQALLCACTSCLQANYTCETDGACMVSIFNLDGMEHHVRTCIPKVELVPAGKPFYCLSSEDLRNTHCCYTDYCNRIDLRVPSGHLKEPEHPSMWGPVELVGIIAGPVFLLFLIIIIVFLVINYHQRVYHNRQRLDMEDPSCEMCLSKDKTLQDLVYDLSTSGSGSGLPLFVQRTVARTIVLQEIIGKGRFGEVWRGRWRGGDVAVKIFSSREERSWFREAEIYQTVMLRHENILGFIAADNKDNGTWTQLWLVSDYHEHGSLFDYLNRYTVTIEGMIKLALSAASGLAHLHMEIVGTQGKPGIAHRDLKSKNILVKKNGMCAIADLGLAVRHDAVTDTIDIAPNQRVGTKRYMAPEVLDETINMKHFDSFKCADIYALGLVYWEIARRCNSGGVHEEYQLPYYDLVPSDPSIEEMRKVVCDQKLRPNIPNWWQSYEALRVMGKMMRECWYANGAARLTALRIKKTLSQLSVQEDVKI

[2] = molecular target: Ephrin type-A receptor 4 (Homo sapiens, UniProt P54764)
Ephrin type-A receptor 4, sequence (P54764 whole entry): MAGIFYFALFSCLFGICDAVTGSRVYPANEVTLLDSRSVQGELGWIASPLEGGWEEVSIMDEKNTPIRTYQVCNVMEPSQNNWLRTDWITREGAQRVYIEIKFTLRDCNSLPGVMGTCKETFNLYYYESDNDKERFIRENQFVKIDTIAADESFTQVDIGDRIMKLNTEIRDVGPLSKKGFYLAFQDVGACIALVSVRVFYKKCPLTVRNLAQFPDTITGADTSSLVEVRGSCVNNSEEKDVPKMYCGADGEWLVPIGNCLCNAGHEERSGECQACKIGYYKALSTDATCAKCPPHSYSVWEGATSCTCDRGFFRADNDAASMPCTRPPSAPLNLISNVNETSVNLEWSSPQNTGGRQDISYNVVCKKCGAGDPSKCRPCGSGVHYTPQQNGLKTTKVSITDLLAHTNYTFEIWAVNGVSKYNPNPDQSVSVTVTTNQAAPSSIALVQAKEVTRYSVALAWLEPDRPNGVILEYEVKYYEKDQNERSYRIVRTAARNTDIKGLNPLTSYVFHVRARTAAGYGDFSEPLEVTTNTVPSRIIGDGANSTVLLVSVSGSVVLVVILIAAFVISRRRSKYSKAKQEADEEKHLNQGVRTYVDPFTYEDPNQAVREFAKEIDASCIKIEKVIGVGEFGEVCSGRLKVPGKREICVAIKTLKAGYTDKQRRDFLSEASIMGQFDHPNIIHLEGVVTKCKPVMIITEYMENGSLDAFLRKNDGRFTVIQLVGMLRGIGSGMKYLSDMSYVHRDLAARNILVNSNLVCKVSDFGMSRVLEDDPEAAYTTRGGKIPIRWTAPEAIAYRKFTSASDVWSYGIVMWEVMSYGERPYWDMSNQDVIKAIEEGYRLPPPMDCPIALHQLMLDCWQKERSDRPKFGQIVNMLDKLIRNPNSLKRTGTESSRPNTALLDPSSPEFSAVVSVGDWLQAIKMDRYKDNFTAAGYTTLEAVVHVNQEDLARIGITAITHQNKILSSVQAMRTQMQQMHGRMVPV

[3] = molecular target: Mitogen-activated protein kinase 1 (Homo sapiens, UniProt P28482)
Mitogen-activated protein kinase 1, sequence (P28482 whole entry): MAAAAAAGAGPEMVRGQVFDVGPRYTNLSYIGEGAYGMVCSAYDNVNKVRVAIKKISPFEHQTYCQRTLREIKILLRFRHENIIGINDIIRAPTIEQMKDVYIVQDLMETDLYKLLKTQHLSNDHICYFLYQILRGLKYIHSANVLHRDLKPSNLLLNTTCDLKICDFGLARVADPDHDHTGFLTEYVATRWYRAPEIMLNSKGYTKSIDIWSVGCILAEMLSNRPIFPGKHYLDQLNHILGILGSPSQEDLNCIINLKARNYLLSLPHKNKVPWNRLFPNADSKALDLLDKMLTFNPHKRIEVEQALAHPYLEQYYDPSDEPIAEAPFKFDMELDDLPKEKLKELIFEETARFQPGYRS

[4] = molecular target: Serine/threonine-protein kinase PAK 2 (Homo sapiens, UniProt Q13177)
Serine/threonine-protein kinase PAK 2, sequence (Q13177 whole entry): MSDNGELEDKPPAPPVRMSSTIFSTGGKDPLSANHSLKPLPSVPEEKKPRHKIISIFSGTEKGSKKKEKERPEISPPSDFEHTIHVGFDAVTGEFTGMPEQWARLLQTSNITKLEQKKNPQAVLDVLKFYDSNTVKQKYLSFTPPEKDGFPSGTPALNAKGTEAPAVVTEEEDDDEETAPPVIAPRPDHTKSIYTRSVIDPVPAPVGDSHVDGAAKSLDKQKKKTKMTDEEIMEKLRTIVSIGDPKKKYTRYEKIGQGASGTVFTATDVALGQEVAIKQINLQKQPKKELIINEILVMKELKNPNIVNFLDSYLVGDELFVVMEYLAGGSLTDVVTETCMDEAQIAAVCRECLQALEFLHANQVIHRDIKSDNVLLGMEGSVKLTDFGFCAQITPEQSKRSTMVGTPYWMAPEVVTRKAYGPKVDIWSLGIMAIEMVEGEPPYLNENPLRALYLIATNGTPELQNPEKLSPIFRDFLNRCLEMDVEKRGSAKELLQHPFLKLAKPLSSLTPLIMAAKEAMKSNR

[5] = molecular target: T2, ATP-dependent 6-phosphofructokinase, platelet type (Homo sapiens, UniProt Q01813)
T2 sequence (Q01813 whole entry): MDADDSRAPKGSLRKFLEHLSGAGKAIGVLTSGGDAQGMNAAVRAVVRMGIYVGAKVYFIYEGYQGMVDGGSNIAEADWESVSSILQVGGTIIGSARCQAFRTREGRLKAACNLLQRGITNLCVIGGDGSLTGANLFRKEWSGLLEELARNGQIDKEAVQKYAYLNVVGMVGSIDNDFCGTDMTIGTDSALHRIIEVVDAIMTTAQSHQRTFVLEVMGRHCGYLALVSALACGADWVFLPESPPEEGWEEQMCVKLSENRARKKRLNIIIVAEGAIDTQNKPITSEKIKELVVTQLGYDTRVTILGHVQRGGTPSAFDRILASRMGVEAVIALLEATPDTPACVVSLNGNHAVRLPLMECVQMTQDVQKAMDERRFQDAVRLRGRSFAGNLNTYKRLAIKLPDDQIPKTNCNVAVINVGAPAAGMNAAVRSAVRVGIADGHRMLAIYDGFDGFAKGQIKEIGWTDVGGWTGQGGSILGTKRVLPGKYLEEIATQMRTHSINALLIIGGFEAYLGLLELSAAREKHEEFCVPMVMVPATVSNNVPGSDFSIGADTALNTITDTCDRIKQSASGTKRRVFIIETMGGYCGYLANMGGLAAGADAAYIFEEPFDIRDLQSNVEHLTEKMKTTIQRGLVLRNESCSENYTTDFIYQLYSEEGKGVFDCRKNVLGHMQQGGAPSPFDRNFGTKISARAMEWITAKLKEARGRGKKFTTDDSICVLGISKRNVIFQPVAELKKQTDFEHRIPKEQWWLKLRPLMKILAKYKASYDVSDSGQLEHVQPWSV

[6] = molecular target: Serine/threonine-protein kinase N1 (Homo sapiens, UniProt Q16512)
Serine/threonine-protein kinase N1, sequence (Q16512 whole entry): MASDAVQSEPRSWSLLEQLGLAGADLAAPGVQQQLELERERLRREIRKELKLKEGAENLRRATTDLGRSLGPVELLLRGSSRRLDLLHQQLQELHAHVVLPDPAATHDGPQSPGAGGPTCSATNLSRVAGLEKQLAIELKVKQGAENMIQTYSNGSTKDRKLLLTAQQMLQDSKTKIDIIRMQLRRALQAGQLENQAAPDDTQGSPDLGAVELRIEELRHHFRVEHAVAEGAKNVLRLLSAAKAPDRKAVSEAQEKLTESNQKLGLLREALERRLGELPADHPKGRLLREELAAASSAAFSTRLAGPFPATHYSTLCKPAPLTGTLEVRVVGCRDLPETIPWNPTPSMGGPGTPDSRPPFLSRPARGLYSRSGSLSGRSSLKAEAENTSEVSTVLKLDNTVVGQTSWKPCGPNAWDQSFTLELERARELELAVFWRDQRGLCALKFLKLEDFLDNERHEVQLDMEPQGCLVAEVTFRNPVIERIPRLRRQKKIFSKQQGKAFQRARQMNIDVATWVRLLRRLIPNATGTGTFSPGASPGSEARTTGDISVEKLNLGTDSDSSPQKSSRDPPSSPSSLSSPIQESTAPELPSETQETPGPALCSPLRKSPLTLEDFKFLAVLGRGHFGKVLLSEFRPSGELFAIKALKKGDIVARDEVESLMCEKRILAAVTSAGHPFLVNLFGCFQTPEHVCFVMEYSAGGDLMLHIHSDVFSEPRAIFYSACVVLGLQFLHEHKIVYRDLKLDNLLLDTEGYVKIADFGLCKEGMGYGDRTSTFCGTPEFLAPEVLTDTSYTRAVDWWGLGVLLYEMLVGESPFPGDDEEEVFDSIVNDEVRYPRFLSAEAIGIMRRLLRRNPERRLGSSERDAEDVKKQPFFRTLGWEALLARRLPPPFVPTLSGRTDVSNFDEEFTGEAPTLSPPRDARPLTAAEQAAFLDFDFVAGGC

[7] = molecular target: cAMP-dependent protein kinase catalytic subunit alpha (Homo sapiens, UniProt P17612)
[8] = molecular target: T3, Septin-9 (Homo sapiens, UniProt Q9UHD8)
T3 sequence (Q9UHD8 whole entry): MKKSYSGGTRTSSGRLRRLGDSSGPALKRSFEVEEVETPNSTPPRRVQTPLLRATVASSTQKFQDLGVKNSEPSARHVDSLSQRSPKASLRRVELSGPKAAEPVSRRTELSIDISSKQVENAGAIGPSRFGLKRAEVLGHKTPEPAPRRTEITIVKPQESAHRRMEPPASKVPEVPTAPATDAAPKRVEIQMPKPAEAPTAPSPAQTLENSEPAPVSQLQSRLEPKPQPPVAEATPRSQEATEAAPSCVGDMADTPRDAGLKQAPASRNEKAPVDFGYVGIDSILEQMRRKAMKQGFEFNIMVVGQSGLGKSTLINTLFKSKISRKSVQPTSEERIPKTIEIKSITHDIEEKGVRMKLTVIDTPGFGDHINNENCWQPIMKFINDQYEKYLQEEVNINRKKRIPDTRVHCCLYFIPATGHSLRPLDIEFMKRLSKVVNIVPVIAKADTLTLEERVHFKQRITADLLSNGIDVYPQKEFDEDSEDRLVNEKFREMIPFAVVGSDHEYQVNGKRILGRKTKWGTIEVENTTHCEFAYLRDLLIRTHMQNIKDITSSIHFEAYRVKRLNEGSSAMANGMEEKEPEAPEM

[9] = molecular target: Serine/threonine-protein kinase 26 (Homo sapiens, UniProt Q9P289)
Serine/threonine-protein kinase 26, sequence (Q9P289 whole entry): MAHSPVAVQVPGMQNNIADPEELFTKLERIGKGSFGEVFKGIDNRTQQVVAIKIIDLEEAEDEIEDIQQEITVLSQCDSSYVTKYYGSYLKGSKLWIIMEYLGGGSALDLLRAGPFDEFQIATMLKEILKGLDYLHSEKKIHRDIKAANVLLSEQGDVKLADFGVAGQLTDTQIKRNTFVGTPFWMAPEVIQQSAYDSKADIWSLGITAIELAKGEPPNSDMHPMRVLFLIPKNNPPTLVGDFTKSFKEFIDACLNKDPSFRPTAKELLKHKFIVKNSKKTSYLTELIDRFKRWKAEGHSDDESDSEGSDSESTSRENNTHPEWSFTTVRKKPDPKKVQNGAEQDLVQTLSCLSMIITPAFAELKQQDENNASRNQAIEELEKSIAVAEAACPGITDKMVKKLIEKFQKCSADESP

[10] = molecular target: T4, Tyrosine-protein kinase Tec (Homo sapiens, UniProt P42680)
T4 sequence (P42680 whole entry): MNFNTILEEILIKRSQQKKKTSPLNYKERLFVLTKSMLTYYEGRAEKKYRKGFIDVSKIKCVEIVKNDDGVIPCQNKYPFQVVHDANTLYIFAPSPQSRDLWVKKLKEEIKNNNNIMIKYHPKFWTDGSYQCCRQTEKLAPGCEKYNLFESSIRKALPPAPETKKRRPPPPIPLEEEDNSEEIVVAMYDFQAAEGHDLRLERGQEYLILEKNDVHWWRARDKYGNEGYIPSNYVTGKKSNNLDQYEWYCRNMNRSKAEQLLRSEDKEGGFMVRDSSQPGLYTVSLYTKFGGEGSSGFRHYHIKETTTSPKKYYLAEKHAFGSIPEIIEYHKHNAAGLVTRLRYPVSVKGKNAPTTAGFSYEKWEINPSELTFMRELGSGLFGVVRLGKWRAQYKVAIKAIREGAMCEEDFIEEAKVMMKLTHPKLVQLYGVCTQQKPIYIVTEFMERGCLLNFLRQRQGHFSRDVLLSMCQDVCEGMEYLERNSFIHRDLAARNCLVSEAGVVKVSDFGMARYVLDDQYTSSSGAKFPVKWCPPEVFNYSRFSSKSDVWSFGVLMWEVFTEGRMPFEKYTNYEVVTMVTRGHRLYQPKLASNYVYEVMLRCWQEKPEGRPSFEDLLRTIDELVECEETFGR

Structure (SMILES) | Kd [1] | Kd [2] | Kd [3] | Kd [4] | Kd [5] | Kd [6] | Kd [7] | Kd [8] | Kd [9] | Kd [10]
CO[C@H]1C[C@@H]2CC[C@@H](C)[C@@](O)(O2)C(=O)C(=O)N2CCCC[C@H]2C(=O)O[C@H]([C@H](C)C[C@@H]2CC[C@@H](OC(=O)C(C)(CO)CO)[C@H](OC)C2)CC(=O)[C@H](C)/C=C(\C)[C@@H](O)[C@@H](OC)C(=O)[C@H](C)C[C@H](C)/C=C/C=C/C=C/1C [TEMSIROLIMUS] | > 30 µM (inactive) | > 30 µM (inactive) | > 30 µM (inactive) | > 30 µM (inactive) | > 30 µM (inactive) | > 30 µM (inactive) | > 30 µM (inactive) | > 30 µM (inactive) | > 30 µM (inactive) | > 30 µM (inactive)
O=C(Cc1ccc(-c2ccc(OCCN3CCOCC3)cc2)cn1)NCc1ccccc1 [TIRBANIBULIN] | > 30 µM (inactive) | > 30 µM (inactive) | > 30 µM (inactive) | > 30 µM (inactive) | > 30 µM (inactive) | > 30 µM (inactive) | > 30 µM (inactive) | > 30 µM (inactive) | > 30 µM (inactive) | > 30 µM (inactive)
O=C1NC(=O)[C@@H](c2cn3c4c(cccc24)CCC3)[C@@H]1c1c[nH]c2ccccc12 [TIVANTINIB] | > 30 µM (inactive) | > 30 µM (inactive) | > 30 µM (inactive) | > 30 µM (inactive) | > 30 µM (inactive) | > 30 µM (inactive) | > 30 µM (inactive) | > 30 µM (inactive) | > 30 µM (inactive) | > 30 µM (inactive)
Cc1cc(Nc2ncnc3ccc(NC4=NC(C)(C)CO4)cc23)ccc1Oc1ccn2ncnc2c1 [TUCATINIB] | > 30 µM (inactive) | > 30 µM (inactive) | > 30 µM (inactive) | > 30 µM (inactive) | > 30 µM (inactive) | > 30 µM (inactive) | > 30 µM (inactive) | > 30 µM (inactive) | > 30 µM (inactive) | > 30 µM (inactive)
C[C@@H](N)c1ccc(C(=O)Nc2ccnc3[nH]ccc23)cc1 [Y-39983] | > 30 µM (inactive) | > 30 µM (inactive) | > 30 µM (inactive) | > 30 µM (inactive) | > 30 µM (inactive) | 0.253 µM (active) | 23.2 µM (active) | > 30 µM (inactive) | > 30 µM (inactive) | > 30 µM (inactive)

Results, then the molecule that gave them:

Kd [1] | Kd [2] | Kd [3] | Kd [4] | Kd [5] | Kd [6] | Kd [7] | Kd [8] | Kd [9] | Kd [10] | Structure (SMILES)
> 30 µM (inactive) | > 30 µM (inactive) | > 30 µM (inactive) | > 30 µM (inactive) | > 30 µM (inactive) | > 30 µM (inactive) | > 30 µM (inactive) | > 30 µM (inactive) | > 30 µM (inactive) | > 30 µM (inactive) | CO[C@H]1C[C@@H]2CC[C@@H](C)[C@@](O)(O2)C(=O)C(=O)N2CCCC[C@H]2C(=O)O[C@H]([C@H](C)C[C@@H]2CC[C@@H](O)[C@H](OC)C2)CC(=O)[C@H](C)/C=C(\C)[C@@H](O)[C@@H](OC)C(=O)[C@H](C)C[C@H](C)/C=C/C=C/C=C/1C [SIROLIMUS]
> 30 µM (inactive) | 0.022 µM (active) | > 30 µM (inactive) | > 30 µM (inactive) | > 30 µM (inactive) | 2.98 µM (active) | > 30 µM (inactive) | > 30 µM (inactive) | > 30 µM (inactive) | 0.282 µM (active) | CCS(=O)(=O)c1cccc(-c2cc(C(=O)NC3CCN(C)CC3)c(C)c3[nH]c4ncc(C)cc4c23)c1 [TAK-901]
> 30 µM (inactive) | 0.44 µM (active) | > 30 µM (inactive) | > 30 µM (inactive) | > 30 µM (inactive) | > 30 µM (inactive) | > 30 µM (inactive) | > 30 µM (inactive) | > 30 µM (inactive) | > 30 µM (inactive) | COc1cc2c(Nc3ccc(Cl)c(Cl)c3F)ncnc2cc1OC[C@@H]1C[C@@H]2CN(C)C[C@@H]2C1 [TESEVATINIB]
> 30 µM (inactive) | > 30 µM (inactive) | > 30 µM (inactive) | > 30 µM (inactive) | > 30 µM (inactive) | > 30 µM (inactive) | > 30 µM (inactive) | > 30 µM (inactive) | > 30 µM (inactive) | > 30 µM (inactive) | C[C@@H](NC(=O)c1ncnc(N)c1Cl)c1ncc(C(=O)Nc2cc(C(F)(F)F)c(Cl)cn2)s1 [TOVORAFENIB]
> 30 µM (inactive) | 0.167 µM (active) | > 30 µM (inactive) | > 30 µM (inactive) | > 30 µM (inactive) | 0.011 µM (active) | > 30 µM (inactive) | > 30 µM (inactive) | > 30 µM (inactive) | 0.045 µM (active) | CC(C)c1cc(CNc2nc(Nc3cc(C4CC4)[nH]n3)cc(N3CCN(C)CC3)n2)on1 [XL-228]
> 30 µM (inactive) | > 30 µM (inactive) | > 30 µM (inactive) | > 30 µM (inactive) | > 30 µM (inactive) | 1.69 µM (active) | > 30 µM (inactive) | > 30 µM (inactive) | > 30 µM (inactive) | > 30 µM (inactive) | CN1C/C=C/CCOc2cccc(c2)-c2ccnc(n2)Nc2cccc(c2)C1 [ZOTIRACICLIB]
